For data set [1], the system named is Cisplatin induced nephrotoxicity. The data set can be described thus: Platinum toxicity negating effect: blood urea nitrogen (BUN) determination in BDF1 mice given Cisplatin. In kind it is in vivo, mouse (male BDF1). Particulars: for BUN (≥30) on the fourth day / BUN (≥30) on the eleventh day: mice with BUN ≥30 / mice. As to the method: BUN of the mice which have been administered a platinum complex increases due to the platinum poisoning in the kidney. […] The method of negating platinum toxicity of the present invention will be illustrated in more detail by way of Examples later.
Sodium selenite was administered to the peritoneal cavities of the mice at a dosage of 6.3 mg/kg. […] BUN of the mice was determined on the fourth day from the date of the administration. […] BUN of these control groups was also determined.
BUN of the mice was dertermined on the fourth day from the date of administration and on the eleventh day from the date of the administration. […] BUN of these control groups was also determined.
Our studies were carried out in BDF1 male mice weighing approximately 25 grams. All solutions were freshly were daily and given by the intraperitoneal route.
The BUN values were determined on the fourth day after the administration of cisplatinol.

In data set [2] the test system is cadmium induced testicular damage. The settings on record: Kar and co-workers, 1969; cited from earlier work.
The subject of data set [3] is nephrotoxic effects of Cisplatin. The settings on record: 750 mg/kg intraperitoneally or 100 mg/kg intravenously; cited from earlier work.
Setting [4] is: Table 3, sodium selenite 1 mg/kg 2 hours before Cisplatin 14 mg/kg.
Setting [5] is: Table 3, sodium selenite 2 mg/kg 2 hours before Cisplatin 14 mg/kg.
Setting [6] is: Table 3, sodium selenite 4 mg/kg 2 hours before Cisplatin 14 mg/kg.
[7] abbreviates: Table 3, sodium selenite 6 mg/kg 2 hours before Cisplatin 14 mg/kg.
Where [8] appears, read: Table 3, sodium selenite 8 mg/kg 2 hours before Cisplatin 14 mg/kg.

Consider `O=[Se](O)O` [Sodium selenite], for which the “number of dead mice” value is recorded as 2 in data set [1] (Table 1, fourth day, sodium selenite 6.3 mg/kg 2 hours before Cisplatin 14 mg/kg); 1 in data set [1] (Table 2, fourth day, sodium selenite 6.3 mg/kg 3 hours before Cisplatin 14 mg/kg); 1 in data set [1] (Table 2, fourth day, sodium selenite 6.3 mg/kg 4 hours before Cisplatin 14 mg/kg); 1 in data set [1] (Table 2, fourth day, sodium selenite 6.3 mg/kg 6 hours before Cisplatin 14 mg/kg); 1 in data set [1] (Table 2, fourth day, sodium selenite 6.3 mg/kg simultaneously with Cisplatin 14 mg/kg); 1 in data set [1] (Table 3, eleventh day, sodium selenite 2 mg/kg 2 hours before Cisplatin 14 mg/kg). Besides, the “number of dead mice” value worked out at 2 in data set [1] (Table 3, eleventh day, sodium selenite 4 mg/kg 2 hours before Cisplatin 14 mg/kg); 1 in data set [1] (Table 3, eleventh day, sodium selenite 6 mg/kg 2 hours before Cisplatin 14 mg/kg); 1 in data set [1] (Table 3, eleventh day, sodium selenite 8 mg/kg 2 hours before Cisplatin 14 mg/kg); 1 in data set [1] (Table 3, fourth day, sodium selenite 4 mg/kg 2 hours before Cisplatin 14 mg/kg); 1 in data set [1] (Table 3, fourth day, sodium selenite 8 mg/kg 2 hours before Cisplatin 14 mg/kg). The “BUN (≥30) on the fourth day” value in data set [1] (Table 1, sodium selenite 6.3 mg/kg 1 hour after Cisplatin 14 mg/kg) is listed as 5/5; in data set [1] (Table 1, sodium selenite 6.3 mg/kg 2 hours before Cisplatin 14 mg/kg) it was 1/3; in data set [1] (Table 1, sodium selenite 6.3 mg/kg 4 hours before Cisplatin 14 mg/kg), 4/5; in data set [1] (Table 1, sodium selenite 6.3 mg/kg i.p. alone, no Cisplatin), 0/5; in data set [1] (Table 1, sodium selenite 6.3 mg/kg simultaneously with Cisplatin 14 mg/kg), 2/5; in data set [1] (Table 2, sodium selenite 6.3 mg/kg 1 hour before Cisplatin 14 mg/kg), 3/5. Besides, the “BUN (≥30) on the fourth day” value in data set [1] (Table 2, sodium selenite 6.3 mg/kg 2 hours before Cisplatin 14 mg/kg) is listed as 1/5; in data set [1] (Table 2, sodium selenite 6.3 mg/kg 3 hours before Cisplatin 14 mg/kg), 1/4; in data set [1] (Table 2, sodium selenite 6.3 mg/kg 4 hours before Cisplatin 14 mg/kg), 2/4; in data set [1] (Table 2, sodium selenite 6.3 mg/kg 6 hours before Cisplatin 14 mg/kg), 2/4; in data set [1] (Table 2, sodium selenite 6.3 mg/kg simultaneously with Cisplatin 14 mg/kg), 2/4; in data set [1] (setting [4]), 3/5. The “BUN (≥30) on the fourth day” value in data set [1] (setting [5]) is reported as 1/5; in data set [1] (setting [6]), 1/4; in data set [1] (setting [7]), 1/5; in data set [1] (setting [8]), 1/4. Further, the “BUN (≥30) on the eleventh day” value in data set [1] (setting [4]) is 1/5; in data set [1] (setting [5]), 0/4; in data set [1] (setting [6]), 0/3; in data set [1] (setting [7]) it was 0/4; in data set [1] (setting [8]) it was 0/4.

On to `[Se]` [selenium], for which the “cadmium induced testicular damage” value in data set [2] is recorded as “prevents”.

For `CCN(CC)C(=S)[S-].[Na+]` [sodium diethyldithiocarbamate], in data set [3], the “nephrotoxic effects of Cisplatin in female rats” value was “effectively inhibited”.

Values taken from patent publication US4617189A, “Use of selenium-containing compounds for negating the toxic effects of platinum compounds used in chemotherapy, and a novel selenium-containing platinum compound and use thereof as an anti-cancer medicine” (priority 1985, dated 1986).
